Reference: article PMC9180926, “Discovery of Novel 3-Hydroxyquinazoline-2,4(1H,3H)-Dione Derivatives: A Series of Metal Ion Chelators with Potent Anti-HCV Activities” (International Journal of Molecular Sciences, 2022)

Assays:
[1] = Cytotoxicity assay (CCK-8) on replicon cells; assay type: cell-based; conditions: human, HCV 1b replicon cells (Huh-7.5.1); 50% cytotoxic concentration; CCK-8, HCV 1b replicon cells, 72 h
[2] = Metal ion chelation assay using UV-Vis spectrophotometry; assay type: physicochemical
Text: The chelation rules of the 3-hydroxyquinazoline-2,4(1H,3H)-diones with magnesium ions were explored by UV-Vis spectrophotometry, which was widely used to study the binding properties of compounds with metal ions in vitro [56, 57, 58]. For the sake of eliminating the interference of heteroaryl groups on the determination of metal ion chelation, the representative compound 21e with phenyl group substituted at the C-7 position was selected to study its chelation ability with Mg^2+ under different conditions. […] This is probably because compound 21e mainly exists in the free molecular state with the N-hydroxyl group protonated in methanol, which is difficult to chelate with Mg^2+. Intriguingly, after the introduction of 5 mm NaOAc to the methanol solution containing 21e, the effect of MgCl2 on the absorbance of the system totally changed (Figure 5B). […] Remarkably, merely 20 μM MgCl2 was able to increase the absorbance by more than 0.5. […] A reasonable logic is that the addition of NaOAc raised the pH of the methanol solution, resulting in partial ionization of compound 21e at the N-hydroxyl group. Subsequently, 21e in the ionic state formed a chelation complex with Mg^2+, which increased the absorbance of the solution.
With the aim of verifying whether 21e has the ability to chelate with Mg^2+ in the ionic state, we further investigated the influence of various concentrations of NaOAc on the differential UV-Vis spectra caused by the addition of MgCl2. […] Moreover, the magnitude of the variation in the spectrum is proportional to the concentration of NaOAc. […] The comparison between different UV-Vis spectra also verified that compound 21e could chelate with Mg^2+ in the N-hydroxyl deprotonated form rather than the free molecular state.
2 mL of methanol solution containing the components in the sample or control group (Table 4) was added to a quartz cuvette (BQ-114-2, Chongqing Xinweier Glass Co., Ltd., Chongqing, China). The absorbance at 200–400 nm was scanned by a UV-Vis spectrophotometer (Agilent Cary 60, Agilent Technologies, Santa Clara, CA, USA), and the blank methanol was used for baseline calibration. The absorbance of the control group was subtracted from that of the sample group at the corresponding wavelength to obtain the differential UV-Vis spectra, which were used to analyze the chelating property of the compound with Mg^2+.

[3] = target: T1, C-terminal His-tagged NS5BΔ21 from HCV 1b subtype (Hepatitis C virus genotype 1b, UniProt Q913V3); experiment: Thermal shift assay with NS5B protein; assay type: binding
T1 construct: C-terminal His-tagged NS5BΔ21 from HCV 1b subtype; His tag (C); made in house
Text: The stability of a protein system is enhanced after binding to its specific ligand, leading to an increase in the melting temperature (Tm). Taking advantage of this feature, the thermal shift assay was extensively used to assess the binding of small molecules to the protein targets. The metal ion chelators were thought to exert an anti-HCV effect by chelating with Mg^2+ in the catalytic center of NS5B [34, 36, 38]. […] C-terminal His-tagged NS5BΔ21 from HCV 1b subtype was used as the protein in the experiment. Compared with the blank control (DMSO), the fluorescence–temperature curves of the NS5B system in the presence of 21e (Figure 3A) and 21k (Figure 3B) at 50 μM, 100 μM, and 200 μM all shifted to the right of the axis. The Tm values of 21e and 21k increased in a concentration-dependent manner, presenting higher values than that of the blank control (Tm = 63.5 °C) at all tested concentrations.
C-terminal His-tagged NS5BΔ21 from HCV 1b subtype was expressed from pET28a HCR6 plasmid in our lab and dissolved in a Tris-HCl buffer (20 mm, pH 7.2) containing 150 mm NaCl. Then, 1 μL of corresponding concentration (1 mm, 2 mm, or 4 mm) of the test compound in DMSO or 1 μL DMSO alone was added to each well of a 96-well PCR plate (Shanghai Sangon Biotech Co., Ltd., Shanghai, China). Subsequently, 19 μL of pre-prepared PBS solution containing 10 mm MgCl2, 10× SYPRO® orange protein gel stain (Sigma-Aldrich, St. Louis, MO, USA), and 5 μM NS5B protein was added to each well and mixed. The final concentration of DMSO in each well was 5%. The PCR plate was covered with a high-permeable film, incubated at room temperature for 10 min, and then placed on the Applied Biosystems^TM 7500 Real-Time PCR System (Thermo Fisher Scientific, Waltham, MA, USA). The temperature was increased to 90 °C gradually, and the change curve of fluorescence intensity versus system temperature was recorded.

T1 sequence (Q913V3 2420-2989, stated change not applied): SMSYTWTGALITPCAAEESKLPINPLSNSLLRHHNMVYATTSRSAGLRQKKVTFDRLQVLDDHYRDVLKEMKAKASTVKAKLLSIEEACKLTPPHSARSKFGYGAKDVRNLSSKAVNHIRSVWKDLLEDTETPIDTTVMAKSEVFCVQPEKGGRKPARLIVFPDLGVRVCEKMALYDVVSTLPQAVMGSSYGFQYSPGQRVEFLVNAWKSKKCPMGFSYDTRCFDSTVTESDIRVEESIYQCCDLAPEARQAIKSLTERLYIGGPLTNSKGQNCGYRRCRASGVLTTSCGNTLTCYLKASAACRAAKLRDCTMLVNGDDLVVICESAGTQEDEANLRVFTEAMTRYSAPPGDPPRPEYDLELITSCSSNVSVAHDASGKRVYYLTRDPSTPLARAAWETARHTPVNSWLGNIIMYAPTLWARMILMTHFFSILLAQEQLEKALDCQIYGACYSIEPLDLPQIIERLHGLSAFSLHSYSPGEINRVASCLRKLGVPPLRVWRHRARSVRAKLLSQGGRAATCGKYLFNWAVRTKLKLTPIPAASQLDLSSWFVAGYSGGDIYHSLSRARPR

## O=c1[nH]c2cc(-c3ccccc3)ccc2c(=O)n1O [21e, 3-Hydroxy-7-phenylquinazoline-2,4(1H,3H)-dione]
[1]
  CC50 at 72 h: 5.4 ± 0.6 µM
[2]; 50 μM compound in methanol, no NaOAc, MgCl2 up to 640 μM
  absorbance difference at 254 nm between control group and sample group: no more than 0.1
[2]; 50 μM compound, 80 μM MgCl2, 200 μM to 5 mm NaOAc in methanol
  increase of absorbance at 254 nm: 0.8–1.2
[2]; 50 μM compound, 5 mm NaOAc in methanol, 20 μM MgCl2
  increase of absorbance at 254 nm: more than 0.5
[2]; 50 μM compound, 5 mm NaOAc in methanol, 254 nm
  Mg^2+ concentration at which absorbance change reaches equilibrium: about 400 μM
[3]; compound 50 μM, Tm of compound group minus Tm of blank control, mean ± SD, three experiments
  ΔTm at 50 µM: 0.6 ± 0.15 °C
[3]; compound 100 μM, Tm of compound group minus Tm of blank control, mean ± SD, three experiments
  ΔTm at 100 µM: 0.85 ± 0.02 °C
[3]; compound 200 μM, Tm of compound group minus Tm of blank control, mean ± SD, three experiments
  ΔTm 200 μM: 1.5 ± 0.01 °C
[3]; in Figure 3, blank control Tm = 63.5 °C
  Tm of NS5B complexed with compound: 65.0 °C
[3]; read-out: ΔTm 200 μM, compound 200 μM, Tm of compound group minus Tm of blank control, mean ± SD, three experiments
  ΔTm at 200 µM: 1.6 °C
